Experiment [1] addresses T1, human histamine H4 receptor (Homo sapiens, UniProt Q9H3N8).
T1 construct: purchased PerkinElmer Inc; host or cells: CHO-K1
The experiment in a line: Evaluation of Human H4 Receptor Affinity ([3H]histamine binding). The following applies: inhibition constant Ki, CHO-K1 membrane preparation, read-out: Evaluation of H4 Receptor Affinity. Here is the method: Test Example 2: Evaluation of Human H4 Receptor Affinity
Membrane preparation from recombinant CHO-K1 cell expressing the human histamine H4 receptor (PerkinElmer Inc.), radiolabeled ligand 8.2 nM [^3H]histamine (PerkinElmer Inc.), and compounds dissolved in DMSO were reacted at 25° C. for 90 minutes in a buffering solution containing 50 mM tris-hydrochloric acid, pH 7.4, and 1.25 mM EDTA on a 96 well plate, followed by filtration using a GF/B filter (PerkinElmer Inc.) pretreated with 0.3% polyethylenimine. The residue was washed four times with a buffering solution of 50 mM tris-hydrochloric acid, pH 7.4. Thereafter, a scintillation cocktail (MicroScint 20: PerkinElmer Inc.) was added to the GF/B filter, and the radioactivity of each well was measured using a liquid scintillation counter for 96-well (TopCount: PerkinElmer Inc.). The non-specific binding was evaluated in the presence of 1.0 μM histamine. The inhibition constant Ki was calculated from the 50% inhibitory concentration (IC50 value) obtained in each test and the Kd value (5.7 nM) unique to this assay system, according to the Cheng-Prusoff equation.

Experiment [2] addresses human histamine H1 receptor (Homo sapiens, UniProt P35367). The experiment in a line: Evaluation of Human H1 Receptor Affinity ([3H]pyrilamine binding). Set-up: purchased PerkinElmer Inc; host or cells: CHO-K1. To be noted: inhibition constant Ki, CHO-K1 membrane preparation. As to the method: Test Example 1: Evaluation of Human H1 Receptor Affinity
Membrane preparation from recombinant CHO-K1 cell expressing the human histamine H1 receptor (PerkinElmer Inc.), radiolabeled ligand 1.2 nM [^3H]pyrilamine (PerkinElmer Inc.), and test compounds dissolved in DMSO were reacted at 25° C. for 3 hours in a buffering solution containing 50 mM tris-hydrochloric acid, pH 7.4, and 5 mM magnesium chloride on a 96 well plate, followed by filtration using a GF/B filter (PerkinElmer Inc.) pretreated with 0.3% polyethylenimine. The residue was washed four times with a buffering solution of 50 mM tris-hydrochloric acid, pH 7.4. Thereafter, a scintillation cocktail (MicroScint 20: PerkinElmer Inc.) was added to the GF/B filter, and the radioactivity of each well was measured using a liquid scintillation counter for 96-well (TopCount: PerkinElmer Inc.). The non-specific binding was evaluated in the presence of 1.0 μM pyrilamine. The inhibition constant Ki was calculated from the 50% inhibitory concentration (IC50 value) obtained in each test and the Kd value (1.1 nM) unique to this assay system, according to the Cheng-Prusoff equation.

Structures are written as SMILES. pKi: −log10 of the molar value. Structures can show the parent of a compound that is named as a salt.

Among the data in patent US20190047966A1, “NOVEL COMPOUND AND PHARMACOLOGICALLY ACCEPTABLE SALT THEREOF” (MEIJI SEIKA PHARMA CO., LTD., priority 2016, published 2019) are Ki values, retold here.

Sequence of human histamine H1 receptor (P35367 whole entry): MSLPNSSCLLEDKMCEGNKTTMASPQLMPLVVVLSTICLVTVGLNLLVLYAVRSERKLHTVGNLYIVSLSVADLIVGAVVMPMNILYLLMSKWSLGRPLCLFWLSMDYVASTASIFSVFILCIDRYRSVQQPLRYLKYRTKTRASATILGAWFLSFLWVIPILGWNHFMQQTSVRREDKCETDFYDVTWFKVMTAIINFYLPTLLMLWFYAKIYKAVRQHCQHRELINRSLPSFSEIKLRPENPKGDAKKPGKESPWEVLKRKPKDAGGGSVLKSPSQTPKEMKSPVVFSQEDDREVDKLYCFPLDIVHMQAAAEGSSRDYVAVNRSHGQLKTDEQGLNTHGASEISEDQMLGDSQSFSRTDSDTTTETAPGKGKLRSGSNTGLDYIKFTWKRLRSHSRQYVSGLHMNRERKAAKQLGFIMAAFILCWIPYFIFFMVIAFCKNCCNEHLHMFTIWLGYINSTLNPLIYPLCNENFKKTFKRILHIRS
T1 sequence (Q9H3N8 whole entry): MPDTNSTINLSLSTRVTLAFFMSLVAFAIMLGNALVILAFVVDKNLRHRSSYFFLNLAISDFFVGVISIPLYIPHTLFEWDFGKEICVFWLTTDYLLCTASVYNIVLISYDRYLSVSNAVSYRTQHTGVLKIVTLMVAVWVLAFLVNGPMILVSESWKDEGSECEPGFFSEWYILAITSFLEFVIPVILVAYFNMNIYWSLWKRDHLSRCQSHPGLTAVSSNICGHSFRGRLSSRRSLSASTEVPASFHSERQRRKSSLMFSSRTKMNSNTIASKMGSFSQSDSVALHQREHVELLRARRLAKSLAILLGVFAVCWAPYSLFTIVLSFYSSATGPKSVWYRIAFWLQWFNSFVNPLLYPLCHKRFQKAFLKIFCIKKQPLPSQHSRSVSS

As for `CCOC(=O)c1csc(COCCN2CCN(c3nc(N)nc4c3CCc3cc(OCc5ccc(Cl)cc5)ccc3-4)CC2)n1` [135(a), ethyl 2-((2-(4-(2-amino-8-((4-chlorobenzyl)oxy)-5,6-dihydrobenzo[h]quinazolin-4-yl)piperazin-1-yl)ethoxy)methyl)thiazole-4-carboxylate], the pKi in experiment [1] and in experiment [2] was greater than 7.00 each time.
On to `Nc1nc2c(c(N3CCN(CCOCc4nc(C(=O)O)cs4)CC3)n1)CCc1cc(OCc3ccc(Cl)cc3)ccc1-2` [135(b), 2-((2-(4-(2-amino-8-((4-chlorobenzyl)oxy)-5,6-dihydrobenzo[h]quinazolin-4-yl)piperazin-1-yl)ethoxy)methyl)thiazole-4-carboxylic acid dihydrochloride], for which the pKi in experiment [1] and in experiment [2] was greater than 7.00 in each case.
For the compound `CCOC(=O)C1(C#N)CCC(COCCN2CCN(c3nc(N)nc4c3CCc3cc(OCc5ccc(Cl)cc5)ccc3-4)CC2)CC1` (stereo not drawn) [159(a), ethyl cis- or trans-4-((2-(4-(2-amino-8-((4-chlorobenzyl)oxy)-5,6-dihydrobenzo[h]quinazolin-4-yl)piperazin-1-yl)ethoxy)methyl)-1-cyanocyclohexane-1-carboxylate], the pKi in experiment [1] is 6.30 to 7.00; in experiment [2], greater than 7.00.
For `N#CC1(C(=O)O)CCC(COCCN2CCN(c3nc(N)nc4c3CCc3cc(OCc5ccc(Cl)cc5)ccc3-4)CC2)CC1` (stereo not drawn) [159(b), cis- or trans-4-((2-(4-(2-amino-8-((4-chlorobenzyl)oxy)-5,6-dihydrobenzo[h]quinazolin-4-yl)piperazin-1-yl)ethoxy)methyl)-1-cyanocyclohexane-1-carboxylic acid hydrochloride] the same measures were greater than 7.00 and greater than 7.00.
For `CCOC(=O)C1(C#N)CCC(COCCN2CCN(c3nc(N)nc4c3CCc3cc(OCc5ccc(Cl)cc5)ccc3-4)CC2)CC1` (stereo not drawn) [160(a), ethyl trans- or cis-4-((2-(4-(2-amino-8-((4-chlorobenzyl)oxy)-5,6-dihydrobenzo[h]quinazolin-4-yl)piperazin-1-yl)ethoxy)methyl)-1-cyanocyclohexane-1-carboxylate] the same measures were 6.30 to 7.00 and greater than 7.00.
For `N#CC1(C(=O)O)CCC(COCCN2CCN(c3nc(N)nc4c3CCc3cc(OCc5ccc(Cl)cc5)ccc3-4)CC2)CC1` (stereo not drawn) [160(b), trans- or cis-4-((2-(4-(2-amino-8-((4-chlorobenzyl)oxy)-5,6-dihydrobenzo[h]quinazolin-4-yl)piperazin-1-yl)ethoxy)methyl)-1-cyanocyclohexane-1-carboxylic acid] the same measures were greater than 7.00 and greater than 7.00.
On to `CCOC(=O)C1CCC(O)(COCCN2CCN(c3nc(N)nc4c3CCc3cc(OCc5ccc(Cl)cc5)ccc3-4)CC2)CC1` (stereo not drawn) [166(a), ethyl cis- or trans-4-((2-(4-(2-amino-8-((4-chlorobenzyl)oxy)-5,6-dihydrobenzo[h]quinazolin-4-yl)piperazin-1-yl)ethoxy)methyl)-4-hydroxycyclohexane-1-carboxylate], for which the pKi in experiment [1] is 6.30 to 7.00; in experiment [2] it was greater than 7.00.
Turning to `Nc1nc2c(c(N3CCN(CCOCC4(O)CCC(C(=O)O)CC4)CC3)n1)CCc1cc(OCc3ccc(Cl)cc3)ccc1-2` (stereo not drawn) [166(b), cis- or trans-4-((2-(4-(2-amino-8-((4-chlorobenzyl)oxy)-5,6-dihydrobenzo[h]quinazolin-4-yl)piperazin-1-yl)ethoxy)methyl)-4-hydroxycyclohexane-1-carboxylic acid], the pKi is 6.30 to 7.00 in experiment [1] and greater than 7.00 in experiment [2].
For `Nc1nc2c(c(N3CCNCC3)n1)CCc1cc(OCc3ccc(Cl)cc3)ccc1-2` [Example 4, 8-((4-chlorobenzyl)oxy)-4-(piperazin-1-yl)-5,6-dihydrobenzo[h]quinazolin-2-amine] the same measures were greater than 7.00 and greater than 7.00.
For `Nc1nc2c(c(N3CCNCC3)n1)CCc1cc(OCc3ccccc3)ccc1-2` [Example 5, 8-(benzyloxy)-4-(piperazin-1-yl)-5,6-dihydrobenzo[h]quinazolin-2-amine] the same measures were greater than 7.00 and greater than 7.00.
For `Nc1nc2c(c(N3CCNCC3)n1)CCc1cc(OCc3ccc(OC(F)(F)F)cc3)ccc1-2` [Example 6, 4-(piperazin-1-yl)-8-((4-(trifluoromethoxy)benzyl)oxy)-5,6-dihydrobenzo[h]quinazolin-2-amine] the same measures were greater than 7.00 and greater than 7.00.
Consider `Nc1nc2c(c(N3CCN(CCO)CC3)n1)CCc1cc(OCc3ccccc3)ccc1-2` [Example 7, 2-(4-(2-amino-8-(benzyloxy)-5,6-dihydrobenzo[h]quinazolin-4-yl)piperazin-1-yl)ethan-1-ol], for which the pKi is 6.30 to 7.00 in experiment [1] and greater than 7.00 in experiment [2].
`Nc1nc2c(c(N3CCN(CCOCCO)CC3)n1)CCc1cc(OCc3ccc(Cl)cc3)ccc1-2` [Example 8, 2-(2-(4-(2-amino-8-((4-chlorobenzyl)oxy)-5,6-dihydrobenzo[h]quinazolin-4-yl)piperazin-1-yl)ethoxy)ethan-1-ol]: the pKi in experiment [1] and in experiment [2] was greater than 7.00 in each case.
`Nc1nc2c(c(N3CCN(CCOCCOCCO)CC3)n1)CCc1cc(OCc3ccc(Cl)cc3)ccc1-2` [Example 9, 2-(2-(2-(4-(2-amino-8-((4-chlorobenzyl)oxy)-5,6-dihydrobenzo[h]quinazolin-4-yl)piperazin-1-yl)ethoxy)ethoxy)ethan-1-ol]: the pKi in experiment [1] and in experiment [2] was greater than 7.00 each time.
As for `N#CCOCCOCCN1CCN(c2nc(N)nc3c2CCc2cc(OCc4ccc(Cl)cc4)ccc2-3)CC1` [Example 10, 2-(2-(2-(4-(2-amino-8-((4-chlorobenzyl)oxy)-5,6-dihydrobenzo[h]quinazolin-4-yl)piperazin-1-yl)ethoxy)ethoxy)acetonitrile], the pKi in experiment [1] and in experiment [2] was greater than 7.00 in each case.
Turning to `Nc1nc2c(c(N3CCN(CCO[C@H]4CC[C@@H](C(=O)O)CC4)CC3)n1)CCc1cc(OCc3ccc(Cl)cc3)ccc1-2` [Example 24, cis-4-(2-(4-(2-amino-8-((4-chlorobenzyl)oxy)-5,6-dihydrobenzo[h]quinazolin-4-yl)piperazin-1-yl)ethoxy)cyclohexane-1-carboxylic acid], the figures for the pKi in experiment [1] and in experiment [2] were 6.30 to 7.00 and greater than 7.00, respectively.
For `Nc1nc2c(c(N3CCN(CCOC[C@H]4CC[C@@H](C(=O)O)CC4)CC3)n1)CCc1cc(OCc3ccc(OC(F)(F)F)cc3)ccc1-2` [Example 27, cis-4-((2-(4-(2-amino-8-((4-(trifluoromethoxy)benzyl)oxy)-5,6-dihydrobenzo[h]quinazolin-4-yl)piperazin-1-yl)ethoxy)methyl)cyclohexane-1-carboxylic acid dihydrochloride] the same measures were greater than 7.00 and greater than 7.00.
For `Nc1nc2c(c(N3CCN(CCO[C@H]4CC[C@H](C(=O)O)CC4)CC3)n1)CCc1cc(OCc3ccc(Cl)cc3)ccc1-2` [Example 28, trans-4-(2-(4-(2-amino-8-((4-chlorobenzyl)oxy)-5,6-dihydrobenzo[h]quinazolin-4-yl)piperazin-1-yl)ethoxy)cyclohexane-1-carboxylic acid] the same measures were greater than 7.00 and greater than 7.00.
